We go through 2 compounds from patent US11578074B2, “Nitrogenous heterocyclic compound, preparation method, intermediate, composition, and application” (SHANGHAI PHARMACEUTICALS HOLDING CO., LTD., priority 2017, dated 2023).

The target of series [1] is T1, CYP2C19 (Homo sapiens, UniProt P33261).
T1 construct: A system of 100 μL human liver microsomes; from tissue; host or cells: human liver microsomes
Kind of series: Direct inhibition (DI) of CYP2C19 in human liver microsomes. The format is in vitro ADME. The following applies: probe Mephenytoin, human liver microsomes 0.2 mg/mL, 10 μM compound, read-out: Direct inhibition (DI) 2C19 (Mephenytoin). Put shortly: (§1)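 Pooled human liver microsomes (0.2 mg/mL) with 1 mM NADPH and 10 μM test compound were incubated for 20 min with a mixed probe-substrate cocktail (midazolam 10 μM, testosterone 100 μM, dextromethorphan 10 μM, diclofenac 20 μM, phenacetin 100 μM, mephenytoin 100 μM). Relative enzyme activity came from metabolite formation versus DMSO control.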
Background: Liver microsomes are vesicles of endoplasmic reticulum, rich in cytochrome P450 enzymes.

Series [2] concerns the target T2, ErbB2 kinase (Homo sapiens, UniProt P04626).
T2 construct: The final concentration of ErbB2 kinase was 0.06 ng/μL
Put plainly: EGFR/ErbB2 enzymatic experiment (HTRF kinEASE-TK), ErbB2. The format is biochemical. Particulars: ErbB2 kinase 0.06 ng/μL, ATP 4 μM; read-out: Kinase IC50 (nM) in vitro ErbB2. (In TR-FRET formats the signal depends on donor and acceptor labels being close together.)

For series [3], the target named is EGFR kinase (Homo sapiens, UniProt P00533). Kind of series: EGFR/ErbB2 enzymatic experiment (HTRF kinEASE-TK), EGFR. The format is biochemical. Particulars: EGFR kinase 0.06 units/μL, ATP 1.65 μM; read-out: Kinase IC50 (nM) in vitro EGFR.
EGFR kinase, sequence (P00533 25-1210): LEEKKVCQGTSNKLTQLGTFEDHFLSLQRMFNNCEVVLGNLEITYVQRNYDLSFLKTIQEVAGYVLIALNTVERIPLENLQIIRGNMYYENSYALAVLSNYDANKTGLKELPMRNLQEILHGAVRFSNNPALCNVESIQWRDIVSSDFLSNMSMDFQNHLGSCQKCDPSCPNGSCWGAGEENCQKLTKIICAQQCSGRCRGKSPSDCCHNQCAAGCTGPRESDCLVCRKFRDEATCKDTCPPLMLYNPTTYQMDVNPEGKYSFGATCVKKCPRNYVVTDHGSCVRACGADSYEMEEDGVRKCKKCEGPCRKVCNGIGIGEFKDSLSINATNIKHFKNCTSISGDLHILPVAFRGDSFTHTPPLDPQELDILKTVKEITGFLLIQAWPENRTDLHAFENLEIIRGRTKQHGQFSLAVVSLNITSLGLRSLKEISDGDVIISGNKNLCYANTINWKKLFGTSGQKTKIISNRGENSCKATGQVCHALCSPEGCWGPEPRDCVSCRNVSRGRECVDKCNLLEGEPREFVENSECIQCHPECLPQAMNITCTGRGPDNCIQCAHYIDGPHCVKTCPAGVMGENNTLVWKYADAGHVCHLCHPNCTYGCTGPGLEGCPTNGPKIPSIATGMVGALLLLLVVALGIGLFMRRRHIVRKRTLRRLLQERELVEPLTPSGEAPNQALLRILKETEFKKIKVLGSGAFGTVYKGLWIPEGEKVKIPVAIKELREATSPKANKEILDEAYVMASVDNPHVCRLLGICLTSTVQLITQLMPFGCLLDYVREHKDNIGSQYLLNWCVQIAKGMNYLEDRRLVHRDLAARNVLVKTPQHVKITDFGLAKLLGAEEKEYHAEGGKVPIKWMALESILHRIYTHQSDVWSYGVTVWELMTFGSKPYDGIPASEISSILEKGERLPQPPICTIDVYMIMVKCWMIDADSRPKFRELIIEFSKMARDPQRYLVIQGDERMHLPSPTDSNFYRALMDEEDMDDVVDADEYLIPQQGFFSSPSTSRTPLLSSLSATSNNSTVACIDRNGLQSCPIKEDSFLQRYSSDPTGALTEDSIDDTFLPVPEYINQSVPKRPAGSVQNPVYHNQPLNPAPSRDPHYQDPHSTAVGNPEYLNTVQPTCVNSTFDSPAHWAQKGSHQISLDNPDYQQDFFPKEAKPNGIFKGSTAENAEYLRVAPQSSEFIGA
The target in series [4] is T3, CYP1A2 (Homo sapiens, UniProt P05177).
T3 construct: A system of 100 μL human liver microsomes; from tissue; host or cells: human liver microsomes
T3 sequence (P05177 1-516): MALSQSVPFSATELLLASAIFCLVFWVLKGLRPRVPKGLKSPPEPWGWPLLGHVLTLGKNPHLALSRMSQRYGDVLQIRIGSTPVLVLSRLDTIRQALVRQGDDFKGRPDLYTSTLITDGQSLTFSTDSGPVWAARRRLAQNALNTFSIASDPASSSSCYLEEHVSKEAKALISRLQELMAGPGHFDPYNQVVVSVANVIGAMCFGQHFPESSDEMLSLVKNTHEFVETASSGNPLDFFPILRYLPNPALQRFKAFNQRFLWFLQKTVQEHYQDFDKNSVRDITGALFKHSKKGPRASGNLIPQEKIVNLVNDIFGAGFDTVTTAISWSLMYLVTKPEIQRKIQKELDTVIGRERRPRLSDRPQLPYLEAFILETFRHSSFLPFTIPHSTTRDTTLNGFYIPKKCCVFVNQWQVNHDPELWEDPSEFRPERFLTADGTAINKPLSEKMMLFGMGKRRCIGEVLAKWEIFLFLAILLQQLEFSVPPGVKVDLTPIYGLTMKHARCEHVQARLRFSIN
Put plainly: Direct inhibition (DI) of CYP1A2 in human liver microsomes. The format is in vitro ADME. The following applies: probe Phenacetin, human liver microsomes 0.2 mg/mL, 10 μM compound, read-out: Direct inhibition (DI) 1A2 (Phenacetin). In outline:
as §1

In series [5] the target is T4, CYP2D6 (Homo sapiens, UniProt P10635).
T4 construct: A system of 100 μL human liver microsomes; from tissue; host or cells: human liver microsomes
T4 sequence (P10635 whole entry): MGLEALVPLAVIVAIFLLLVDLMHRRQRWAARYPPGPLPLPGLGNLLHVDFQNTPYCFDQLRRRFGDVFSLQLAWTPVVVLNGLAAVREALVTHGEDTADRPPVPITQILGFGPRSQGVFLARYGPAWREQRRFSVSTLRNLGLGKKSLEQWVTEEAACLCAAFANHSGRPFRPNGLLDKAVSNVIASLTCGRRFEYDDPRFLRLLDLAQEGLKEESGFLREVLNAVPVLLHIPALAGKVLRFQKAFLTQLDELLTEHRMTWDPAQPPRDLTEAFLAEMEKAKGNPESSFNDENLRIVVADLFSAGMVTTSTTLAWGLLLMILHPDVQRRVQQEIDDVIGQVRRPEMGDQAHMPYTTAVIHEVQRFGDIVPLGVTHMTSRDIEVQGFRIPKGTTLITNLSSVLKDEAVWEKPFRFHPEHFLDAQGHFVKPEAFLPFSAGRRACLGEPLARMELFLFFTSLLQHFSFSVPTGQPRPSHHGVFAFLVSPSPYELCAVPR
Kind of series: Direct inhibition (DI) of CYP2D6 in human liver microsomes. The format is in vitro ADME. Particulars: probe Dextromethorphan, human liver microsomes 0.2 mg/mL, 10 μM compound, read-out: Direct inhibition (DI) 2D6 (Dextromethorphan). Put shortly: as §1

The target in series [6] is T5, CYP3A4 (Homo sapiens, UniProt P08684).
T5 construct: A system of 100 μL human liver microsomes; from tissue; host or cells: human liver microsomes
T5 sequence (P08684 whole entry): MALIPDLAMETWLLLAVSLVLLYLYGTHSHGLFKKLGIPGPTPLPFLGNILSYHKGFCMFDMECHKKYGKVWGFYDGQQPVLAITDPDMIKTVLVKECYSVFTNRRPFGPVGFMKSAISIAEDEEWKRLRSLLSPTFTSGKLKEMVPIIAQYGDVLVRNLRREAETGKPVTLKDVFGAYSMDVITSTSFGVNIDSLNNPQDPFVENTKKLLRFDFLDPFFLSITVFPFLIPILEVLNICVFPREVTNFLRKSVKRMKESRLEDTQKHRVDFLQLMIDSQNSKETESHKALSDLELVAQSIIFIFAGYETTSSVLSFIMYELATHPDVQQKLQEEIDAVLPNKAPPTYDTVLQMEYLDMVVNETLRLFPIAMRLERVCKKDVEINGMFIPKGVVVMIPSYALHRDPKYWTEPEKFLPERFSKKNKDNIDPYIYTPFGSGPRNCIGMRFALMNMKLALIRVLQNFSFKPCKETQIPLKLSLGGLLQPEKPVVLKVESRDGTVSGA
Kind of series: Direct inhibition (DI) of CYP3A4 in human liver microsomes. Particulars: human liver microsomes 0.2 mg/mL, 10 μM compound. The format is in vitro ADME. Put shortly: as §1

Series [7] relates to BT-474 (human breast cancer cell). Kind of series: In vitro proliferation inhibition assay of cell lines (CellTiter-Glo), BT-474. The format is cell-based. Particulars: BT-474 cells, 72 hours. Put shortly:
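Cells were exposed to nine compound concentrations in duplicate for 72 h at 37 °C and 5% CO2. Viability was read with CellTiter-Glo reagent after equilibration at room temperature.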
Background: ATP-based viability assays read luminescence as a measure of living cells.

[8] abbreviates: probe Midazolam, read-out: Direct inhibition (DI) 3A4 (Midazolam).
Where [9] appears, read: probe Testosterone, read-out: Direct inhibition (DI) 3A4 (testosterone).

Read-outs that look alike come from different tables or passages of the source.

T1 sequence (P33261 whole entry): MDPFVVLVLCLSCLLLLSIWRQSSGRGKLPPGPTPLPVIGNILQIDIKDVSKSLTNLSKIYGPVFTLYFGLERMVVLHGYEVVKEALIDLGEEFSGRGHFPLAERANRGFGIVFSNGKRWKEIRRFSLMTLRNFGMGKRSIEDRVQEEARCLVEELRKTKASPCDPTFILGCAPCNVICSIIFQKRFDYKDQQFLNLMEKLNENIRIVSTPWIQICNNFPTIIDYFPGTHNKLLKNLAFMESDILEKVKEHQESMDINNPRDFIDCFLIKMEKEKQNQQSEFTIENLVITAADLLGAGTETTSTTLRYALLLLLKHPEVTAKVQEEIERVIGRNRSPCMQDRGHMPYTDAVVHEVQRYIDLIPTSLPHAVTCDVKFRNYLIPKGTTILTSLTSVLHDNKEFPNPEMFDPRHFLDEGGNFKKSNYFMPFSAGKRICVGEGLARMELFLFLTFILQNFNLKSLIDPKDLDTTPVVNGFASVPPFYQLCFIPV
T2 sequence (P04626 23-1255): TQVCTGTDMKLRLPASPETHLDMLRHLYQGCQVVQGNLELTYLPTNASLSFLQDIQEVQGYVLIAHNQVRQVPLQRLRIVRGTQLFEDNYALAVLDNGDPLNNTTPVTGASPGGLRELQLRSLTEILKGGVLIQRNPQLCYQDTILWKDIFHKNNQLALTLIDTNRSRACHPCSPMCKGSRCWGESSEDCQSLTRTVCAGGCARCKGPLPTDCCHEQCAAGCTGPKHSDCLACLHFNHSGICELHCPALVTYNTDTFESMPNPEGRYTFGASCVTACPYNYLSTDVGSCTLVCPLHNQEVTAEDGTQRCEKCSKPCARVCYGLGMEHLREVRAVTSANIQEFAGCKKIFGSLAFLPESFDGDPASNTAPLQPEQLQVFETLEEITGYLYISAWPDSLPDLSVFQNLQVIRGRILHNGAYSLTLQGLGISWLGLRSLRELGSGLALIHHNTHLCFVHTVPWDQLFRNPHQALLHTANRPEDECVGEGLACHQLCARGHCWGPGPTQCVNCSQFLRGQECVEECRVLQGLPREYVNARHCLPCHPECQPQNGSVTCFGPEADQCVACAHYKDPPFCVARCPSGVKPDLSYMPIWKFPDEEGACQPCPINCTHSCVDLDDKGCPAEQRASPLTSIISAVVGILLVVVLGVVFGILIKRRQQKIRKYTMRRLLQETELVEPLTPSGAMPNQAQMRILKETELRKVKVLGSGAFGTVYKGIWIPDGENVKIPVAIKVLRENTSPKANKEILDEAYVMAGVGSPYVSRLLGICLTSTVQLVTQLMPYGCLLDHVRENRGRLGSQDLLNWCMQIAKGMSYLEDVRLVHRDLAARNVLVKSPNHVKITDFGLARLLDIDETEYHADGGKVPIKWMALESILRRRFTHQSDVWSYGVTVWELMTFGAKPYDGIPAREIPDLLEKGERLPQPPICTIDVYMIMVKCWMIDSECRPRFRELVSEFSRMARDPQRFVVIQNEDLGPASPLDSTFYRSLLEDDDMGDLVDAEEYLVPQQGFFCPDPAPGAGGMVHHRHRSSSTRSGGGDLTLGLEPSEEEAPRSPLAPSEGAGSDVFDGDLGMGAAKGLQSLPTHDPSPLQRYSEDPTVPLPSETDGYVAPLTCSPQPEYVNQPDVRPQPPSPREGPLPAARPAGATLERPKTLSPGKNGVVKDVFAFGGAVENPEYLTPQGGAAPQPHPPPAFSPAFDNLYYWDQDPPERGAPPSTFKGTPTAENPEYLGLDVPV

As to `CCOc1cc2ncnc(Nc3ccc(Oc4ccn5ncnc5c4)c(C)c3)c2cc1NC(=O)/C=C/[C@H]1CCCN1C` [Final product of Embodiment 22, (R,E)-N-(4-((4-([1,2,4]triazolo[1,5-a]pyridin-7-yloxy)-3-methylphenyl)amino)-7-ethoxyquinazolin-6-yl)-3-(1-methylpyrrolidin-2-yl)acrylamide], the inhibition (commonly the share of the control response that was lost under treatment) at 20 min, 10 µM in series [1] is 37%; in series [4], 14%; in series [5], 48%; in series [6] (setting [8]), 12%; in series [6] (setting [9]), 32%. In addition, the values for the IC50 in series [2], in series [3] and in series [7] were 0.37 nM, 0.8 nM and 1 nM, respectively.
On to `CCOc1cc2ncnc(Nc3ccc(Oc4ccn5ncnc5c4)c(C)c3)c2cc1NC(=O)/C(F)=C/[C@H]1CCCN1C` [Final product of Embodiment 45], for which the inhibition at 20 min, 10 µM in series [1] stood at 11%; in series [4], 8%; in series [5], 39%; in series [6] (setting [8]), 6%; in series [6] (setting [9]), 24%. The half-maximal inhibitory concentration (IC50) (commonly the concentration that inhibits the measured activity by half) in series [2] was determined as 1.8 nM; in series [3] it was 10.5 nM; in series [7], 2.1 nM.
